Where two headings read alike, the source gives them in different places.
Test system: human peripheral blood mononuclear cells (PBMCs)
Test: ELISA assay of immunocyte activator: induction of IFN-γ in human PBMCs
Format: cell-based
Conditions: 24 h, 37 °C, read-out: EC50 IFN-γ ratio (inducing human PBMCs to produce IFN-γ)
Method: The immune activity of each compound is represented by the function of inducing human peripheral blood mononuclear cells (PBMCs) to produce the immune cytokine IFN-γ by, and the EC50 values thereof are shown in Table 3.
• 1) Peripheral blood samples from healthy human volunteer were collected into heparin anticoagulant tubes to reach 5 mL of fresh blood, and PBS was added at a ratio of 1:1 to dilute the blood (2 mL+2 mL in conventional blood collection tubes). • 2) 5 mL of lymphocyte separation medium was put in a 15 mL sterile centrifuge tube for use. • 3) The diluted blood was aspirated and slowly added from 1 cm above the separation medium along the tube wall, so that the diluted blood overlaid the separation medium and formed a distinct interface therewith. • 4) The centrifuge tube was centrifuged at 2000 rpm at room temperature for 20 min. Now five layers formed in the centrifuge tube: the top layer was plasma layer, and the layer between the plasma layer and the lymphocyte separation medium was the lymphocyte layer as a white film. • 5) The mononuclear cell layer as a white film in the middle was aspirated carefully and mononuclear cells were aspirated as many as possible. The mononuclear cells were washed by more than 5 volumes of PBS twice, and each time, the mononuclear cells were centrifuged at 1500 rpm for 10 min. • 6) The supernatant was removed, then 1 mL of 1640 medium was added and mixed uniformly. A small amount of the mixture was taken for cell counting.
The prepared PBMCs were plated in a 96-well plate (Costar, 3894) (2×10^5 cells per well). Each compound in Table 3 was taken and added into the wells with plated cells at ten concentrations with uniform gradient distribution (0.0001-10 μM, diluted with […] medium containing […]).

[1] = Homo sapiens, PBMC, no pretreatment marked
[2] = Homo sapiens, PBMC, Note c: sample pretreated with Cathepsin-B (10 μg) in PBS, room temperature, 3 h
[3] = Homo sapiens, PBMC, pH 6, 24 h, Note b: sample pretreated with equimolar glutathione, PBS pH 6, 37 °C

**Q.** `COCCOc1nc(N)c2[nH]c(=O)n(Cc3ccc(CNC(=O)CCC(=O)NC(CCCCc4cn(CCOCCOCCOCCNC(=O)CCN5C(=O)C=CC5=O)nn4)C(=O)NCCOCCOCCOCCNC(=O)OC4CC/C=C/CCC4)cc3)c2n1` (centres unmarked) [Compound K26] was tested. Which EC50 [1] did it give?
**A.** 2 nM

**Q.** For `COCCOc1nc(N)c2[nH]c(=O)n(Cc3ccc(CNC(=O)CCC(=O)NC(CCCCc4cn(CCCCN5CCN(CCCNC(=S)N6CCCC(n7nc(-c8ccc(Oc9ccccc9)cc8)c8c(N)ncnc87)C6)CC5)nn4)C(=O)N4CCN(C(=O)OCc5ccc(NC(=O)[C@H](CCCNC(N)=O)NC(=O)[C@@H](NC(=O)CCOCCOCCOCCOCCN6C(=O)C=CC6=O)C(C)C)cc5)CC4)cc3)c2n1` (some centres unmarked) [Compound K27], which EC50 [1] is on record?
**A.** 250 nM

**Q.** With `COCCOc1nc(N)c2[nH]c(=O)n(Cc3ccc(CNC(=O)CCC(=O)NC(CCCCNC(=O)OCc4ccc(NC(=O)[C@H](CCCNC(N)=O)NC(=O)[C@@H](NC(=O)CCCCCN5C(=O)C=CC5=O)C(C)C)cc4)C(=O)NCCOCCOCCOCCOc4ccc(-c5nnc(C)nn5)cc4)cc3)c2n1` (some centres unmarked) [Compound K29] as the compound, how does the EC50 [1] read?
**A.** 31 nM

**Q.** Which EC50 [1] does the source give for `COCCOc1nc(N)c2[nH]c(=O)n(Cc3ccc(CNC(=O)CCC(=O)NC(CCCCNC(=O)OCc4ccc(NC(=O)[C@H](CCCNC(N)=O)NC(=O)[C@@H](NC(=O)CCCCCN5C(=O)C=CC5=O)C(C)C)cc4)C(=O)NCCOCCOCCOCCNC(=O)OC4CC/C=C/CCC4)cc3)c2n1` (some centres unmarked) [Compound K30] here?
**A.** 59 nM

**Q.** `COCCOc1nc(N)c2[nH]c(=O)n(Cc3ccc(CNC(=O)CCC(=O)NC(CCCCc4cn(CCOCCOCCOCCNC(=O)CCOCCOCCNC(=O)OCC5C6CCC#CCCC65)nn4)C(=O)N[C@H](C(=O)N[C@@H](CCCNC(N)=O)C(=O)Nc4ccc(COC(=O)NC[C@H](C)c5ccc(-c6c(O)cc(C)c7[nH]c(=O)c8sccc8c67)cc5)cc4)C(C)C)cc3)c2n1` (some centres unmarked) [Compound K31] was tested. Which EC50 [1] did it give?
**A.** 29 nM

**Q.** How did the EC50 [1] turn out when `C#Cc1c(F)ccc2cc(O)cc(-c3ncc4c(N5CC6CCC(C5)N6C(=O)OCc5ccc(NC(=O)[C@H](CCCNC(N)=O)NC(=O)[C@@H](NC(=O)C(CCCCc6cn(CCOCCOCCOCCNC(=O)CCN7C(=O)C=CC7=O)nn6)NC(=O)CCC(=O)NCc6ccc(Cn7c(=O)[nH]c8c(N)nc(OCCOC)nc87)cc6)C(C)C)cc5)nc(OC[C@@]56CCCN5C[C@H](F)C6)nc4c3F)c12` (some centres unmarked) [Compound K32] was run?
**A.** 160 nM

**Q.** `C#Cc1c(F)ccc2cc(O)cc(-c3c(Cl)cc4c(N5CC6CCC(C5)N6C(=O)OCc5ccc(NC(=O)[C@H](CCCNC(N)=O)NC(=O)[C@@H](NC(=O)C(CCCCc6cn(CCOCCOCCOCCNC(=O)CCN7C(=O)C=CC7=O)nn6)NC(=O)CCC(=O)NCc6ccc(Cn7c(=O)[nH]c8c(N)nc(OCCOC)nc87)cc6)C(C)C)cc5)nc(OC[C@@]56CCCN5C[C@H](F)C6)nc4c3F)c12` (some centres unmarked) [Compound K33] was tested. Which EC50 [1] did it give?
**A.** 180 nM

**Q.** How did the EC50 [1] turn out when `CCCCOc1nc(N)c2[nH]c(=O)n(Cc3ccc(NC(=S)Nc4sc5c(c4C(=O)N[C@@H](CCCCNC(=O)OCc4ccc(NC(=O)[C@H](CCCNC(N)=O)NC(=O)[C@@H](NC(=O)CCCCCN6C(=O)C=CC6=O)C(C)C)cc4)C(=O)NCCOCCOCCOCCOCCNC(=O)CCC(=O)N4Cc6ccccc6C#Cc6ccccc64)CCCC5)cc3)c2n1` [Compound K34] was run?
**A.** 131 nM

**Q.** Which EC50 [1] does the source give for `C=CC(=O)Nc1cc(Nc2nccc(-c3cn(C)c4ccccc34)n2)c(OC)cc1N(C)CCN(C)CCCCCCNC(=O)C(CCCCc1cn(CCOCCOCCOCCNC(=O)CCC(=O)N2Cc3ccccc3C#Cc3ccccc32)nn1)NC(=O)CCC(=O)NCc1ccc(Cn2c(=O)[nH]c3c(N)nc(OCCOC)nc32)cc1` (centres unmarked) [Compound K35] here?
**A.** 260 nM

**Q.** How did the EC50 [1] turn out when `C=CC(=O)Nc1cc(Nc2nccc(-c3cn(C)c4ccccc34)n2)c(OC)cc1N(C)CCN(C)CCCCCCNC(=O)[C@@H](CCCCn1cc(COCCOCCOCCOCCNC(=O)CCC(=O)N2Cc3ccccc3C#Cc3ccccc32)nn1)NC(=O)COCCOCCOCCn1cc(Cn2c(=O)[nH]c3c(N)nc(OCCCC)nc32)nn1` [Compound K36] was run?
**A.** 110 nM

**Q.** For `C=CC(=O)Nc1cc(Nc2nccc(-c3cn(C)c4ccccc34)n2)c(OC)cc1N(C)CCN(C)CCCCCCNC(=O)C(CCCCNC(=O)OCc1ccc(NC(=O)[C@H](CCCNC(N)=O)NC(=O)[C@@H](NC(=O)CCOCCOCCOCCOCCNC(=O)CCC(=O)N2Cc3ccccc3C#Cc3ccccc32)C(C)C)cc1)NC(=O)CCC(=O)NCc1ccc(Cn2c(=O)[nH]c3c(N)nc(OCCOC)nc32)cc1` (some centres unmarked) [Compound K37], which EC50 (no pretreatment marked) is on record?
**A.** 220 nM

**Q.** With `C=CC(=O)Nc1cc(Nc2nccc(-c3cn(C)c4ccccc34)n2)c(OC)cc1N(C)CCN(C)CCOCCOCCOCCn1cc(Cn2c(=O)n(C(=O)NCCNC(=O)OCc3ccc(NC(=O)[C@H](CCCNC(N)=O)NC(=O)[C@@H](NC(=O)CCOCCOCCOCCOCCNC(=O)CCC(=O)N4Cc5ccccc5C#Cc5ccccc54)C(C)C)cc3)c3c(N)nc(OCCCC)nc32)nn1` [Compound K38] as the compound, how does the EC50 [2] read?
**A.** 90 nM

**Q.** How did the EC50 [2] turn out when `C=C(CC(=O)OC)C(=O)NCc1ccc(Cn2c(=O)n(C(=O)NCCNC(=O)OCc3ccc(NC(=O)[C@H](CCCNC(N)=O)NC(=O)[C@@H](NC(=O)CCOCCOCCOCCOCCNC(=O)CCC(=O)N4Cc5ccccc5C#Cc5ccccc54)C(C)C)cc3)c3c(N)nc(OCCOC)nc32)cc1` [Compound K39] was run?
**A.** 1 nM

**Q.** With `COCCOc1nc(N)c2[nH]c(=O)n(Cc3ccc(CNC(=O)CCC(=O)NC(CCCCc4cnnn4CCOCCOCCOCCN=C=S)C(=O)NCCCC(=O)Nc4ccc(C#CC#N)cc4)cc3)c2n1` (centres unmarked) [Compound K40] as the compound, how does the EC50 [1] read?
**A.** 1 nM

**Q.** Which EC50 (Homo sapiens, PBMC, pH 5, 24 h, Note d: sample pretreated by hydrolysis, acetate buffer pH 5, 37 °C, 72 h) does the source give for `CCCCOc1nc(N)c2c(n1)n(CCCc1cn(CCOCCOCCOCCNC(=O)CCN3C(=O)C=CC3=O)nn1)c(=O)n2COC(=O)OC(C)C` [Compound K41] here?
**A.** 2 nM

**Q.** How did the EC50 (Homo sapiens, PBMC, Note d: sample pretreated by hydrolysis, acetate buffer pH 5, 37 °C, 72 h) turn out when `CC[C@@]1(O)C(=O)OCc2c1cc1n(c2=O)Cc2c-1nc1cc(F)c(C)c3c1c2[C@@H](NC(=O)CNC(=O)OCn1c(=O)n(Cc2ccc(CNC(=O)CCc4cn(CCOCCOCCOCCNC(=O)CCN5C(=O)C=CC5=O)nn4)cc2)c2nc(OCCOC)nc(N)c21)CC3` [Compound K42] was run?
**A.** 7 nM

**Q.** Which EC50 [3] does the source give for `C=C(COC(=O)n1c(=O)n(CCCc2cn(CCOCCOCCOCCOCCN=[N+]=[N-])nn2)c2nc(OCCCC)nc(N)c21)C(=O)OCC` [Compound K44] here?
**A.** 2 nM

**Q.** `C=C(COC(=O)n1c(=O)n(Cc2ccc(CNC(=O)CCc3cn(CCOCCOCCOCCOCCN=[N+]=[N-])nn3)cc2)c2nc(OCCOC)nc(N)c21)C(=O)OCC` [Compound K45] was tested. Which EC50 [3] did it give?
**A.** 10 nM

**Q.** With `C=CC(=O)Nc1cc(Nc2nccc(-c3cn(C)c4ccccc34)n2)c(OC)cc1N(C)CCN(C)CCCCCCNC(=N)C(CCCCc1cn(CCOCCOCCOCCN=C=S)nn1)NC(=O)CCC(=O)NCc1ccc(Cn2c(=O)[nH]c3c(N)nc(OCCOC)nc32)cc1` (centres unmarked) [Compound K46] as the compound, how does the EC50 [1] read?
**A.** 90 nM

**Q.** With `CCCCOc1nc(N)c2[nH]c(=O)n(Cc3ccc(NC(=S)Nc4sc5c(c4C(=O)NC(CCCCN=C=S)C(=O)NCCOCCOCCOCCOCCNC(=O)CCC(=O)N4Cc6ccccc6C#Cc6ccccc64)CCCC5)cc3)c2n1` (centres unmarked) [Compound K47] as the compound, how does the EC50 [1] read?
**A.** 150 nM

**Q.** Which EC50 [1] does the source give for `COCCOc1nc(N)c2[nH]c(=O)n(Cc3ccc(CNC(=O)CCC(=O)NC(CCCCc4cn(CCOCCOCCOCCN=C=S)nn4)C(=O)NCCOCCOCCOCCNC(=O)OC4CC/C=C/CCC4)cc3)c2n1` (centres unmarked) [Compound K48] here?
**A.** 89 nM

**Q.** Which EC50 [1] does the source give for `C=C(CN1CCC(Cn2c(=O)[nH]c3c(N)nc(O[C@@H](C)CCC)nc32)CC1)C(=O)NCCOCCOCCOCCOCCNC(=O)CCC(=O)N1Cc2ccccc2C#Cc2ccccc21` [Compound K49] here?
**A.** 11 nM

**Q.** With `C=C(CN1CCC(Cn2c(=O)[nH]c3c(N)nc(OCCCC)nc32)CC1)C(=O)NCCOCCOCCOCCOCCNC(=O)CCC(=O)N1Cc2ccccc2C#Cc2ccccc21` [Compound K50] as the compound, how does the EC50 [1] read?
**A.** 23 nM

— US20260325661A1, “ANTIBODY-CONJUGATED IMMUNO-ACTIVATING SMALL MOLECULE COMPOUND, AND USE” (SHENZHEN CONJUGENIX PHARMACEUTICAL TECHNOLOGY CO., LTD, priority 2023, published 2026)
